{
  "source": "patent US9549912B2",
  "about": "“Methods for treating atrial fibrillation” (Armetheon, Inc., priority 2009, dated 2017)",
  "key": {"[1]": {"assay": "Electrophysiological activity in animals: atrial refractoriness, metabolite activity", "type": "in vivo", "conditions": "animals"}, "[2]": {"assay": "Metabolism and elimination features of budiodarone"}, "[3]": {"tested_on": "patients with paroxysmal atrial fibrillation (PAF)", "assay": "Randomized, double-blind, placebo-controlled study of budiodarone in PAF patients with pacemakers: AT/AF burden, episodes, NSR, GCI (Example 2)", "type": "in vivo, human", "description": "The objective of the study is to determine the efficacy of budiodarone in reducing atrial tachyarrhythmia (AT/AF) burden in patients with paroxysmal atrial fibrillation (PAF) compared to placebo, for 12 weeks of treatment, and the safety and tolerability of budiodarone for up to 12 weeks of treatment.\nSecondary: to study the effect of budiodarone versus placebo on the number and duration of AT/AF episodes, duration of normal sinus rhythm (NSR) between episodes of AT/AF and on symptoms associated with PAF.\nExample 2 describes a multicenter, multinational, randomized, double-blind, placebo-controlled, parallel-group study of the efficacy and safety of budiodarone in patients with PAF. Planned enrollment was up to 140 patients (with eventually 110 enrolled) with proven PAF who had permanently implanted pacemakers with appropriate AT/AF diagnostic and recording capabilities. Potential study participants underwent screening assessments, including the optimization of pacemaker programming for accurate AT/AF detection. Within 30 days after screening assessments began, eligible patients entered a 4-week baseline period (Period 1) when baseline atrial fibrillation burden (AFB) was established followed by randomization to one of three active treatment regimens or placebo for a 12-week treatment period (Period 2), followed by a 4-week washout period (Period 3). During the treatment period, patients received twice-daily (BID) oral doses of 200 mg ATI-2042, 400 mg ATI-2042, 600 mg ATI-2042, or placebo. No study drug was given during the baseline and washout periods.\nTo be randomized, study participant must have had: an AT/AF burden between 5% and 70% during the baseline period; no evidence of persistent AF (i.e., 7 or more consecutive days of AT/AF with episodes lasting >23 hours); able to have pacemaker atrial antitachyarrhythmia treatment algorithms turned off for the remaining duration of the study.\nEfficacy outcome measures were AT/AF burden (total time spent in AT/AF as a percentage of total observation time), number and mean duration of AT/AF episodes, mean duration of NSR, patient global clinical impression (GCI) questionnaire, and University of Toronto Atrial Fibrillation Severity Scale (AFSS).\nStatistical methods for efficacy: The primary efficacy analysis was the percent change in the AT/AF burden from baseline to the 12-week treatment period. Pairwise comparisons between each ATI-2042 dose group and the placebo group were performed using the Wilcoxon rank sum test. The primary analysis was based on the mITT population.\nFor all variables based on the pacemaker data, the Wilcoxon rank sum test was used to compare each ATI-2042 dose group to the placebo group. The Jonckheere-Terpstra test was used to test for a dose response. The Wilcoxon signed rank test was used to test for a significant change from baseline within each treatment group. An analysis of covariance (ANCOVA) was used to compare the percent change from baseline in AT/AF burden among the treatment groups after adjusting for the baseline AT/AF burden. The ANCOVA model contained effects for treatment group and baseline AT/AF burden.\nFor patient […], the Cochran-Mantel-Haenszel test was used to compare each ATI-2042 dose group to the placebo group. The Jonckheere-Terpstra test was used to test for a dose response."}, "[4]": {"conditions": "600 mg BID, Treatment Months 1-3, ITT"}, "[5]": {"conditions": "600 mg BID, Treatment Months 1-3, mITT"}},
  "data": [
    {"substance": "(S)-sec-butyl 2-(3-(4-(2-(diethylamino)ethoxy)-3,5-diiodobenzoyl)benzofuran-2-yl)acetate [ATI-2042]", "values": [
      {"measurement": "left and right atrial refractoriness", "setting": "[1]", "value": "increased left and right atrial refractoriness comparable with amiodarone"},
      {"measurement": "metabolism", "setting": "[2]", "value": "primarily metabolized by esterases"},
      {"measurement": "pharmacokinetic features", "setting": "[2]", "value": "short half-life, rapid onset and offset, small volume of distribution, and cytochrome P450-independent elimination"},
      {"measurement": "decrease in AFB", "setting": "[3]; 200 mg BID, mITT population, not statistically significant", "value": 10, "unit": "%"},
      {"measurement": "median percent reduction from baseline in AT/AF burden", "setting": "[3]; 400 mg BID, Treatment Months 1-3, ITT population", "value": 54, "unit": "%"},
      {"measurement": "median percent reduction from baseline in AT/AF burden", "setting": "[3]; 400 mg BID, Treatment Months 1-3, mITT population", "value": 54, "unit": "%"},
      {"measurement": "AF episodes lasting 24 hours (FIG. 6)", "setting": "[3]; 400 mg dose cohort", "value": "only a single 24 hour episode"},
      {"measurement": "patients with AF eradicated during the study period", "setting": "[3]; 600 mg", "value": "More than half the patients had their AF eradicated"},
      {"measurement": "reduction of number and duration of AF episodes below baseline (FIG. 3)", "setting": "[3]; 600 mg", "value": "about 70%"},
      {"measurement": "median percent reduction in AT/AF burden", "setting": "[3]; 600 mg BID, Treatment Month 3, ITT population", "value": 80, "unit": "%"},
      {"measurement": "median percent reduction in AT/AF burden", "setting": "[3]; 600 mg BID, Treatment Month 3, mITT population", "value": 83, "unit": "%"},
      {"measurement": "median percent change from baseline in duration of AT/AF episodes", "setting": "[3]; [4]", "value": "−51.3", "unit": "%"},
      {"measurement": "median percent change from baseline in number of AT/AF episodes", "setting": "[3]; [4]", "value": "−52.9", "unit": "%"},
      {"measurement": "median percent increase from baseline in duration of NSR", "setting": "[3]; [4]", "value": 208.8, "unit": "%"},
      {"measurement": "median percent reduction from baseline in AT/AF burden", "setting": "[3]; 600 mg BID, Treatment Months 1-3, ITT population", "value": 74, "unit": "%"},
      {"measurement": "median percent change from baseline in duration of AT/AF episodes", "setting": "[3]; [5]", "value": "−51.3", "unit": "%"},
      {"measurement": "median percent change from baseline in number of AT/AF episodes", "setting": "[3]; [5]", "value": "−62.1", "unit": "%"},
      {"measurement": "median percent increase from baseline in duration of NSR", "setting": "[3]; [5]", "value": 241.8, "unit": "%"},
      {"measurement": "median percent reduction from baseline in AT/AF burden", "setting": "[3]; 600 mg BID, Treatment Months 1-3, mITT population", "value": 75, "unit": "%"},
      {"measurement": "median percentage reduction in AFB", "setting": "[3]; 600 mg BID, third month, paragraph refers to ITT population", "value": 83, "unit": "%"},
      {"measurement": "AF episodes lasting 24 or more hours (FIG. 6)", "setting": "[3]; 600 mg dose group", "value": "no patients experienced an AF episode lasting 24 or more hours"},
      {"measurement": "decrease in number of AT/AF episodes (median percent change from baseline, FIG. 3)", "setting": "[3]; 600 mg, all three treatment months", "value": "more than 60%"},
      {"measurement": "median AF episode duration", "setting": "[3]; 600 mg, month 3", "value": 0},
      {"measurement": "decrease in duration of episodes (median percent change from baseline, FIG. 3)", "setting": "[3]; 600 mg, treatment month 1", "value": "more than 50%"},
      {"measurement": "decrease in duration of episodes (median percent change from baseline, FIG. 3)", "setting": "[3]; 600 mg, treatment month 2", "value": "more than 70%"},
      {"measurement": "decrease in duration of episodes (median percent change from baseline, FIG. 3)", "setting": "[3]; 600 mg, treatment month 3", "value": "~70", "unit": "%"},
      {"measurement": "mean episode duration (FIG. 4)", "setting": "[3]; 600 mg, down from nearly 24", "value": "less than 1 hour"},
      {"measurement": "Patient GCI: patients a lot or completely satisfied with the test medication", "setting": "[3]; ITT population, dose group not stated", "value": 60.0, "unit": "%"},
      {"measurement": "Patient GCI: patients reporting a lot of improvement or complete relief", "setting": "[3]; dose group not stated, ITT and mITT both named", "value": 46.7, "unit": "%"},
      {"measurement": "AFB after one-month washout", "setting": "[3]; each of the three dose groups", "value": "returned to essentially the baseline values"}
    ]}
  ]
}
